Test results from ChEMBL document CHEMBL3045090, “Synthesis, insecticidal activity, and structure-activity relationship of trifluoromethyl-containing phthalic acid diamide structures” (2010).
In brackets after ≈: the same amount, converted by molar mass.

Each molecule was assayed on Plutella xylostella (assay: Insecticidal activity against third-instar larval stage of Plutella xylostella (diamondback moth) in cabbage leaves assessed as mortality at 100 ug/ml treated for 10 secs before larva infestation measured after 2 days by dipping method). Details: 48 h.
Type: functional

Compound | mortality at 100 µg/mL
COCC(C)(C)NC(=O)c1c(I)cccc1C(=O)Nc1ccc(Cl)c(C(F)(F)F)c1 | 5%
Cc1cc(C(F)(C(F)(F)F)C(F)(F)F)ccc1NC(=O)c1cccc(I)c1C(=O)NC(C)(C)CS(C)(=O)=O [FLUBENDIAMIDE] | 100%
COc1ccc(NC(=O)c2cccc(I)c2C(=O)NC(C)(C)CSC)cc1C(F)(F)F | 5%
COc1ccc(NC(=O)c2cccc(I)c2C(=O)NC(C)(C)CS(C)(=O)=O)cc1C(F)(F)F | 0%
CC(C)(CS(C)(=O)=O)NC(=O)c1c(I)cccc1C(=O)Nc1cccc(C(F)(F)F)c1 | 100%
CSCC(C)(C)NC(=O)c1c(I)cccc1C(=O)Nc1cccc(C(F)(F)F)c1 | 100%
CC(C)(C)NC(=O)c1c(I)cccc1C(=O)Nc1ccc(Cl)c(C(F)(F)F)c1 | 85%
CC(C)(C)NC(=O)c1c(I)cccc1C(=O)Nc1cccc(C(F)(F)F)c1 | 100%
CC(C)(CS(C)(=O)=O)NC(=O)c1c(I)cccc1C(=O)Nc1cc(C(F)(F)F)cc(C(F)(F)F)c1 | 40%
CSCC(C)(C)NC(=O)c1c(I)cccc1C(=O)Nc1ccc(C#N)c(C(F)(F)F)c1 | 100%
CC(C)(CS(C)(=O)=O)NC(=O)c1c(I)cccc1C(=O)Nc1ccc(F)c(C(F)(F)F)c1 | 100%
COCC(C)(C)NC(=O)c1c(I)cccc1C(=O)Nc1cccc(C(F)(F)F)c1 | 60%
COCC(C)(C)NC(=O)c1c(I)cccc1C(=O)Nc1ccc(C#N)c(C(F)(F)F)c1 | 0%
COc1ccc(C(F)(F)F)cc1NC(=O)c1cccc(I)c1C(=O)NC(C)(C)CS(C)(=O)=O | 0%
COCC(C)(C)NC(=O)c1c(I)cccc1C(=O)Nc1ccc(OC)c(C(F)(F)F)c1 | 0%
CSCC(C)(C)NC(=O)c1c(I)cccc1C(=O)Nc1ccc(F)c(C(F)(F)F)c1 | 100%
CC(C)(CS(C)(=O)=O)NC(=O)c1c(I)cccc1C(=O)Nc1cc(C(F)(F)F)ccc1F | 43%
COCC(C)(C)NC(=O)c1c(I)cccc1C(=O)Nc1cc(C(F)(F)F)cc(C(F)(F)F)c1 | 0%

These molecules were tested on Plutella xylostella (assay: Insecticidal activity against third-instar larval stage of Plutella xylostella (diamondback moth) in cabbage leaves assessed as mortality at 5 ug/ml treated for 10 secs before larva infestation measured for 3 days by dipping method). Details: 72 h.
Type: functional

Compound | mortality at 5 µg/mL
Cc1cc(C(F)(C(F)(F)F)C(F)(F)F)ccc1NC(=O)c1cccc(I)c1C(=O)NC(C)(C)CS(C)(=O)=O [FLUBENDIAMIDE] | 100%
CC(C)(CS(C)(=O)=O)NC(=O)c1c(I)cccc1C(=O)Nc1ccc(F)c(C(F)(F)F)c1 | 100%
CSCC(C)(C)NC(=O)c1c(I)cccc1C(=O)Nc1ccc(F)c(C(F)(F)F)c1 | 100%

What follows are molecules tested on Plutella xylostella (assay: Insecticidal activity against third-instar larval stage of Plutella xylostella (diamondback moth) in cabbage leaves assessed as mortality at 10 ug/ml treated for 10 secs before larva infestation measured after 3 days by dipping method). Details: 72 h.
Type: functional

Compound | mortality at 10 µg/mL
Cc1cc(C(F)(C(F)(F)F)C(F)(F)F)ccc1NC(=O)c1cccc(I)c1C(=O)NC(C)(C)CS(C)(=O)=O [FLUBENDIAMIDE] | 100%
CC(C)(CS(C)(=O)=O)NC(=O)c1c(I)cccc1C(=O)Nc1cccc(C(F)(F)F)c1 | 100%
CSCC(C)(C)NC(=O)c1c(I)cccc1C(=O)Nc1cccc(C(F)(F)F)c1 | 100%
CC(C)(C)NC(=O)c1c(I)cccc1C(=O)Nc1ccc(Cl)c(C(F)(F)F)c1 | 70%
CC(C)(C)NC(=O)c1c(I)cccc1C(=O)Nc1cccc(C(F)(F)F)c1 | 100%
CSCC(C)(C)NC(=O)c1c(I)cccc1C(=O)Nc1ccc(C#N)c(C(F)(F)F)c1 | 42%
COCC(C)(C)NC(=O)c1c(I)cccc1C(=O)Nc1cccc(C(F)(F)F)c1 | 13%

The molecules below were run on Plutella xylostella (assay: Insecticidal activity against third-instar larval stage of Plutella xylostella (diamondback moth) in cabbage leaves assessed as mortality at 10 ug/ml treated for 10 secs before larva infestation measured after 2 days by dipping method). Details: 48 h.
Type: functional

Compound | mortality at 10 µg/mL
Cc1cc(C(F)(C(F)(F)F)C(F)(F)F)ccc1NC(=O)c1cccc(I)c1C(=O)NC(C)(C)CS(C)(=O)=O [FLUBENDIAMIDE] | 67%
CC(C)(CS(C)(=O)=O)NC(=O)c1c(I)cccc1C(=O)Nc1cccc(C(F)(F)F)c1 | 95%
CSCC(C)(C)NC(=O)c1c(I)cccc1C(=O)Nc1cccc(C(F)(F)F)c1 | 90%
CC(C)(C)NC(=O)c1c(I)cccc1C(=O)Nc1ccc(Cl)c(C(F)(F)F)c1 | 20%
CC(C)(C)NC(=O)c1c(I)cccc1C(=O)Nc1cccc(C(F)(F)F)c1 | 50%
CSCC(C)(C)NC(=O)c1c(I)cccc1C(=O)Nc1ccc(C#N)c(C(F)(F)F)c1 | 6%
CC(C)(CS(C)(=O)=O)NC(=O)c1c(I)cccc1C(=O)Nc1ccc(F)c(C(F)(F)F)c1 | 100%
COCC(C)(C)NC(=O)c1c(I)cccc1C(=O)Nc1cccc(C(F)(F)F)c1 | 0%
CSCC(C)(C)NC(=O)c1c(I)cccc1C(=O)Nc1ccc(F)c(C(F)(F)F)c1 | 100%

The molecules below were run on Plutella xylostella (assay: Insecticidal activity against third-instar larval stage of Plutella xylostella (diamondback moth) in cabbage leaves assessed as mortality treated for 10 secs before larva infestation measured for 3 days by dipping method). Details: 72 h.
Type: functional

Compound | LC50
Cc1cc(C(F)(C(F)(F)F)C(F)(F)F)ccc1NC(=O)c1cccc(I)c1C(=O)NC(C)(C)CS(C)(=O)=O [FLUBENDIAMIDE] | 0.15 µg/mL (≈ 0.22 µM)

Each molecule was assayed on Plutella xylostella (assay: Insecticidal activity against third-instar larval stage of Plutella xylostella (diamondback moth) in cabbage leaves assessed as mortality at 0.1 ug/ml treated for 10 secs before larva infestation measured for 3 days by dipping method). Details: 72 h.
Type: functional

Compound | mortality at 0.1 µg/mL
Cc1cc(C(F)(C(F)(F)F)C(F)(F)F)ccc1NC(=O)c1cccc(I)c1C(=O)NC(C)(C)CS(C)(=O)=O [FLUBENDIAMIDE] | 20%
CC(C)(CS(C)(=O)=O)NC(=O)c1c(I)cccc1C(=O)Nc1ccc(F)c(C(F)(F)F)c1 | 0%
CSCC(C)(C)NC(=O)c1c(I)cccc1C(=O)Nc1ccc(F)c(C(F)(F)F)c1 | 0%

The molecules below were run on Plutella xylostella (assay: Insecticidal activity against third-instar larval stage of Plutella xylostella (diamondback moth) in cabbage leaves assessed as mortality at 1 ug/ml treated for 10 secs before larva infestation measured for 3 days by dipping method). Details: 72 h.
Type: functional

Compound | mortality at 1 µg/mL
Cc1cc(C(F)(C(F)(F)F)C(F)(F)F)ccc1NC(=O)c1cccc(I)c1C(=O)NC(C)(C)CS(C)(=O)=O [FLUBENDIAMIDE] | 95%
CC(C)(CS(C)(=O)=O)NC(=O)c1c(I)cccc1C(=O)Nc1ccc(F)c(C(F)(F)F)c1 | 29%
CSCC(C)(C)NC(=O)c1c(I)cccc1C(=O)Nc1ccc(F)c(C(F)(F)F)c1 | 33%

What follows are molecules tested on Plutella xylostella (assay: Insecticidal activity against third-instar larval stage of Plutella xylostella (diamondback moth) in cabbage leaves assessed as mortality at 0.5 ug/ml treated for 10 secs before larva infestation measured for 3 days by dipping method). Details: 72 h.
Type: functional

Compound | mortality at 0.5 µg/mL
Cc1cc(C(F)(C(F)(F)F)C(F)(F)F)ccc1NC(=O)c1cccc(I)c1C(=O)NC(C)(C)CS(C)(=O)=O [FLUBENDIAMIDE] | 90%
CC(C)(CS(C)(=O)=O)NC(=O)c1c(I)cccc1C(=O)Nc1ccc(F)c(C(F)(F)F)c1 | 5%
CSCC(C)(C)NC(=O)c1c(I)cccc1C(=O)Nc1ccc(F)c(C(F)(F)F)c1 | 0%

The molecules below were run on Plutella xylostella (assay: Insecticidal activity against third-instar larval stage of Plutella xylostella (diamondback moth) in cabbage leaves assessed as mortality at 100 ug/ml treated for 10 secs before larva infestation measured after 3 days by dipping method). Details: 72 h.
Type: functional

Compound | mortality at 100 µg/mL
COCC(C)(C)NC(=O)c1c(I)cccc1C(=O)Nc1ccc(Cl)c(C(F)(F)F)c1 | 52%
COc1ccc(NC(=O)c2cccc(I)c2C(=O)NC(C)(C)CSC)cc1C(F)(F)F | 50%
COc1ccc(NC(=O)c2cccc(I)c2C(=O)NC(C)(C)CS(C)(=O)=O)cc1C(F)(F)F | 0%
CC(C)(C)NC(=O)c1c(I)cccc1C(=O)Nc1ccc(Cl)c(C(F)(F)F)c1 | 100%
CC(C)(CS(C)(=O)=O)NC(=O)c1c(I)cccc1C(=O)Nc1cc(C(F)(F)F)cc(C(F)(F)F)c1 | 90%
COCC(C)(C)NC(=O)c1c(I)cccc1C(=O)Nc1cccc(C(F)(F)F)c1 | 100%
COCC(C)(C)NC(=O)c1c(I)cccc1C(=O)Nc1ccc(C#N)c(C(F)(F)F)c1 | 0%
COc1ccc(C(F)(F)F)cc1NC(=O)c1cccc(I)c1C(=O)NC(C)(C)CS(C)(=O)=O | 0%
COCC(C)(C)NC(=O)c1c(I)cccc1C(=O)Nc1ccc(OC)c(C(F)(F)F)c1 | 0%
CC(C)(CS(C)(=O)=O)NC(=O)c1c(I)cccc1C(=O)Nc1cc(C(F)(F)F)ccc1F | 67%
COCC(C)(C)NC(=O)c1c(I)cccc1C(=O)Nc1cc(C(F)(F)F)cc(C(F)(F)F)c1 | 0%
